In PubChem BioAssay AID248 (DTP/NCI, 2004):
Inconclusive results and toxic doses are left out. Rule as the data show it: active = T/C of 150% or more; inactive = T/C below 125%.

Tested on: L1210 leukemia ip in BDF1 mice, survival T/C
Test: NCI In Vivo Anticancer Drug Screen. Data for tumor model L1210 Leukemia (intraperitoneal) in B6D2F1 (BDF1) mice
Conditions: endpoint: mean survival time, higher = longer survival
How it was run: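 Value reflects the ratio of survival in compound-treated mice to survival in vehicle-treated controls, with both groups carrying the same transplanted tumor.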

[1] = dose: 100.0 mg/kg/injection, schedule: Q01DX001 (ip), vehicle: carboxymethylcellulose (CMC)
[2] = dose: 200.0 mg/kg/injection, schedule: Q01DX001 (ip), vehicle: carboxymethylcellulose (CMC)
[3] = dose: 400.0 mg/kg/injection, schedule: Q01DX001 (ip), vehicle: carboxymethylcellulose (CMC)
[4] = dose: 100.0 mg/kg/injection, schedule: Q01DX001 (ip), vehicle: saline
[5] = dose: 100.0 mg/kg/injection, schedule: Q04DX003 (ip), vehicle: saline
[6] = dose: 200.0 mg/kg/injection, schedule: Q01DX001 (ip), vehicle: saline
[7] = dose: 200.0 mg/kg/injection, schedule: Q04DX003 (ip), vehicle: saline
[8] = dose: 400.0 mg/kg/injection, schedule: Q01DX001 (ip), vehicle: saline
[9] = dose: 400.0 mg/kg/injection, schedule: Q04DX003 (ip), vehicle: saline
[10] = dose: 200.0 mg/kg/injection, schedule: Q04DX003 (ip), vehicle: saline with Tween-80
[11] = dose: 100.0 mg/kg/injection, schedule: Q01DX009 (ip), vehicle: saline with Tween-80
[12] = dose: 200.0 mg/kg/injection, schedule: Q01DX009 (ip), vehicle: saline with Tween-80
[13] = dose: 400.0 mg/kg/injection, schedule: Q01DX009 (ip), vehicle: saline with Tween-80

Measured: T/C

COc1ccccc1CN1CCCN(Cc2ccccc2OC)C1c1c(O)ccc2ccccc12
inactive: [1] 91 % of control | [2] 91 % of control | [3] 91 % of control

CCOc1ccc(/C=N/NC(=S)NC23CC4CC(CC(C4)C2)C3)cc1OCC
inactive: dose: 75.0 mg/kg/injection, schedule: Q01DX001 (ip), vehicle: saline 94 % of control | dose: 150.0 mg/kg/injection, schedule: Q01DX001 (ip), vehicle: saline 95 % of control | dose: 300.0 mg/kg/injection, schedule: Q01DX001 (ip), vehicle: saline 94 % of control

C[n+]1ccccc1C(=O)O
inactive: [4] 97 % of control | [5] 97 % of control | [6] 106 % of control | [7] 95 % of control | [8] 101 % of control | [9] 92 % of control

CCOC(=O)C(CC(C(=O)OCC)C(=O)c1ccccc1)C(=O)c1ccccc1 (stereo not given)
inactive: [4] 92 % of control | [6] 90 % of control | [8] 97 % of control

Cc1ccccc1NC(=O)Nc1cccc(C)c1C
inactive: dose: 100.0 mg/kg/injection, schedule: Q01DX009 (ip), vehicle: Klucel (hydroxypropylcellulose) (HPC) 87 % of control | dose: 100.0 mg/kg/injection, schedule: Q04DX003 (ip), vehicle: Klucel (hydroxypropylcellulose) (HPC) 98 % of control | dose: 200.0 mg/kg/injection, schedule: Q01DX009 (ip), vehicle: Klucel (hydroxypropylcellulose) (HPC) 95 % of control | dose: 200.0 mg/kg/injection, schedule: Q04DX003 (ip), vehicle: Klucel (hydroxypropylcellulose) (HPC) 93 % of control | dose: 400.0 mg/kg/injection, schedule: Q04DX003 (ip), vehicle: Klucel (hydroxypropylcellulose) (HPC) 94 % of control

BrCc1ccc(-c2ccccc2)cc1
inactive: dose: 5.0 mg/kg/injection, schedule: Q01DX009 (ip), vehicle: Klucel (hydroxypropylcellulose) (HPC) 96 % of control | dose: 5.0 mg/kg/injection, schedule: Q04DX003 (ip), vehicle: Klucel (hydroxypropylcellulose) (HPC) 92 % of control | dose: 10.0 mg/kg/injection, schedule: Q01DX009 (ip), vehicle: Klucel (hydroxypropylcellulose) (HPC) 93 % of control | dose: 10.0 mg/kg/injection, schedule: Q04DX003 (ip), vehicle: Klucel (hydroxypropylcellulose) (HPC) 97 % of control | dose: 20.0 mg/kg/injection, schedule: Q01DX009 (ip), vehicle: Klucel (hydroxypropylcellulose) (HPC) 98 % of control | dose: 20.0 mg/kg/injection, schedule: Q04DX003 (ip), vehicle: Klucel (hydroxypropylcellulose) (HPC) 93 % of control

CCCCCCOC(=O)C[n+]1cccc(C(N)=O)c1
inactive: [5] 95 % of control

[S-]c1n[n+](-c2ccccc2)cs1
inactive: [4] 97 % of control | [6] 95 % of control | [8] 92 % of control

O=C1OCC/C1=C\OCCCO/C=C1\CCOC1=O
inactive: dose: 100.0 mg/kg/injection, schedule: Q04DX002 (ip), vehicle: Klucel (hydroxypropylcellulose) (HPC) 100 % of control | dose: 200.0 mg/kg/injection, schedule: Q04DX002 (ip), vehicle: Klucel (hydroxypropylcellulose) (HPC) 87 % of control | dose: 400.0 mg/kg/injection, schedule: Q04DX002 (ip), vehicle: Klucel (hydroxypropylcellulose) (HPC) 97 % of control

CCCC1=Cc2cc3c(cc2C1N(C)C)OCO3 (stereo not given)
inactive: dose: 100.0 mg/kg/injection, schedule: Q01DX001 (ip), vehicle: Klucel (hydroxypropylcellulose) (HPC) 97 % of control | dose: 200.0 mg/kg/injection, schedule: Q01DX001 (ip), vehicle: Klucel (hydroxypropylcellulose) (HPC) 97 % of control

OC1c2ccccc2C(c2ccccc2)C1c1ccccc1 (stereo not given)
inactive: [10] 87 % of control | dose: 400.0 mg/kg/injection, schedule: Q04DX003 (ip), vehicle: saline with Tween-80 90 % of control

[Br][Ga]([Br])[Br]
inactive: [4] 100 % of control | [6] 101 % of control | [8] 103 % of control

CCCCNC(=O)Nc1cc(C)c(C)cc1C
inactive: dose: 25.0 mg/kg/injection, schedule: Q01DX009 (ip), vehicle: gum acacia 106 % of control | dose: 50.0 mg/kg/injection, schedule: Q01DX009 (ip), vehicle: gum acacia 96 % of control | dose: 100.0 mg/kg/injection, schedule: Q01DX009 (ip), vehicle: gum acacia 88 % of control | dose: 100.0 mg/kg/injection, schedule: Q04DX003 (ip), vehicle: gum acacia 91 % of control | dose: 200.0 mg/kg/injection, schedule: Q01DX009 (ip), vehicle: gum acacia 92 % of control | dose: 200.0 mg/kg/injection, schedule: Q04DX003 (ip), vehicle: gum acacia 96 % of control | dose: 400.0 mg/kg/injection, schedule: Q04DX003 (ip), vehicle: gum acacia 87 % of control

CCOC(=N)CCl
inactive: dose: 50.0 mg/kg/injection, schedule: Q04DX003 (ip), vehicle: saline 101 % of control | [5] 95 % of control

CC(=O)NNc1ccc([N+](=O)[O-])cn1
inactive: [4] 100 % of control | [6] 100 % of control | [8] 100 % of control

Nc1ccc2[nH]c(=S)sc2c1
inactive: [11] 104 % of control | [12] 104 % of control | [13] 108 % of control

CC(=O)Oc1ccc(N2C(=O)C=CC2=O)cc1 (tested in a mixture with another compound)
inactive: dose: 100.0 mg/kg/injection, schedule: Q04DX003 (ip), vehicle: acetone 96 % of control | dose: 100.0 mg/kg/injection, schedule: Q04DX003 (ip), vehicle: other 89 % of control | dose: 200.0 mg/kg/injection, schedule: Q04DX003 (ip), vehicle: acetone 96 % of control | dose: 400.0 mg/kg/injection, schedule: Q04DX003 (ip), vehicle: acetone 100 % of control | dose: 400.0 mg/kg/injection, schedule: Q04DX003 (ip), vehicle: other 87 % of control

ONc1ccccn1
inactive: [4] 95 % of control | [6] 95 % of control

CCOCc1c(COc2ccc(Br)cc2)n(CC)c2ccccc12
inactive: [11] 93 % of control | [12] 90 % of control | [13] 90 % of control

CC12CCCC(O)C1(O)CC(C(=O)O)CC2 (stereo not given)
inactive: dose: 50.0 mg/kg/injection, schedule: Q01DX009 (ip), vehicle: saline with Tween-80 100 % of control | [11] 96 % of control | [12] 96 % of control

CCC(=O)C(c1ccccc1)(c1ccccc1)c1ccccc1
inactive: dose: 100.0 mg/kg/injection, schedule: Q04DX002 (ip), vehicle: other 95 % of control | dose: 200.0 mg/kg/injection, schedule: Q04DX002 (ip), vehicle: other 100 % of control

CN(C)CCS(=O)(=O)c1ccc(Cl)cc1
inactive: dose: 100.0 mg/kg/injection, schedule: Q04DX002 (ip), vehicle: saline 102 % of control | dose: 200.0 mg/kg/injection, schedule: Q04DX002 (ip), vehicle: saline 109 % of control | dose: 400.0 mg/kg/injection, schedule: Q04DX002 (ip), vehicle: saline 98 % of control

CCSC(=S)SCC(=O)O
inactive: dose: 100.0 mg/kg/injection, schedule: Q04DX003 (ip), vehicle: saline with Tween-80 107 % of control | [10] 92 % of control

CCOC(=O)CNCc1cccc(Cl)c1
inactive: dose: 100.0 mg/kg/injection, schedule: Q01DX009 (ip), vehicle: saline 98 % of control | [5] 102 % of control | dose: 200.0 mg/kg/injection, schedule: Q01DX009 (ip), vehicle: saline 95 % of control | [7] 100 % of control | [9] 95 % of control

C#CCOC(=O)Nc1ccc(C)cc1
inactive: [1] 108 % of control | [2] 100 % of control | [3] 118 % of control

C=CCN1C2C=C(c3ccccc3)CC1CCC2 (stereo not given)
inactive: dose: 12.5 mg/kg/injection, schedule: Q04DX003 (ip), vehicle: Klucel (hydroxypropylcellulose) (HPC) 100 % of control | dose: 25.0 mg/kg/injection, schedule: Q04DX003 (ip), vehicle: Klucel (hydroxypropylcellulose) (HPC) 96 % of control
